From US20250127777A1, “DUAL INHIBITION OF MDM2 AND EIF2-ALPHA INDUCES CELL DEATH IN MULTIPLE CANCER CELL TYPES” (The Regents of the University of Colorado, A Body Corporate, priority 2022, published 2025)

What was measured:
[1] = test system: HCT116 xenograft tumors; assay: HCT116 xenograft tumor model; assay type: in vivo; conditions: nude mice, 200 mg/kg nelfinavir and/or 200 mg/kg milademetan
Experimental: Athymic nude mice (NU/NU) weighting 20 to 30 grams and being 8-12 weeks of age (Charles River Labs) were housed in cages under standard conditions (22° C., 50% relative humidity, 12-h light/dark cycles) and provided with food and water ad libitum. Next, […] exponentially growing HCT116 cells resuspended in 100 μl Matrigel/PBS (5 mg/ml final) were injected subcutaneously into both flanks. Tumors grew for 10-14 days before treatment initiation. Experimental animals were given 200 mg/kg nelfinavir and/or 200 mg/kg Milademetan (Rain Therapeutics) by oral gavage once daily, 5 days a week. Tested compounds were prepared in a mixture of 2% Klucel (hydroxypropyl cellulose), 0.5% Tween 80, and 35% ethanol. Tumor volumes (v) were estimated daily, 5 days a week using caliper measurements and formula v=(I×w^2)/2, where I represents the greatest length of the tumor and w is tumor width in the perpendicular axis. Average volumes of the right and left flank tumors were used for plotting and calculations. Equal ratios of male and female mice were used in treatment groups (5 males and 5 females). All in vivo experiments were approved by the Institutional Animal Care and Use Committee at the CU-AMC (IACUC protocol 00432).
After indicated treatments, cells were washed with PBS, total RNA was extracted using Trizol substitute (38% Phenol, saturated, pH 4.3, 0.8 M guanidine thiocyanate, 0.4 M ammonium thiocyanate, 0.1 M sodium acetate, pH 5.0, 5% glycerol), and converted to cDNA with High-Capacity cDNA Reverse Transcription Kit (Thermo Fisher). Next, diluted cDNA was used in quantitative PCR reaction using SYBR Select Master Mix for CFX (Thermo Fisher). Detected mRNA levels were normalized to 18s rRNA values.
Tumors fixed in 4% formaldehyde were transferred to 70% ethanol and embedded in paraffin at the Pathology Shared Resource-Research Histology, University of Colorado Anschutz Medical Campus. Three tumors from each experimental group were sectioned, stained with DAPI and Ki67 primary antibody using Akoya Opal technology (Akoya Biosciences), and scanned at six representative regions with Vectra 3.0 (Akoya Biosciences) at the Human Immune Monitoring Shared Resource (University of Colorado Anschutz). Next, InForm image analysis software (Akoya Biosciences) was used for automated identification of nuclei based on the DAPI signal. Ki67 nuclear fluorescence was outputted for all nuclei.

[2] = test system: cell viability; assay: Cell viability after single-agent treatment; assay type: cell-based

SMILES	animal survival (Kaplan Meier; humane endpoint tumor size>1000 mm^3) ([1]; oral gavage)	tumor growth ([1]; oral gavage once daily, 5 days a week)	effects on cell viability when administered alone [2]
CC1(C)CCC2(CC1)N[C@@H](C(=O)N[C@@H]1CC[C@@H](C(N)=O)OC1)[C@H](c1ccnc(Cl)c1F)[C@]21C(=O)Nc2cc(Cl)ccc21 [milademetan]	had to be sacrificed at the humane endpoint	Tumors continued to grow	limited effects on cell viability
COc1ncc(-c2nc3c(n2C(C)C)[C@H](c2ccc(Cl)cc2)N(c2cc(Cl)cn(C)c2=O)C3=O)c(OC)n1 [siremadlin/HDM201, siremadlin]			limited effects on cell viability
COc1cc(C(=O)O)ccc1NC(=O)[C@@H]1N[C@@H](CC(C)(C)C)[C@](C#N)(c2ccc(Cl)cc2F)[C@H]1c1cccc(Cl)c1F [idasanutlin]			limited effects on cell viability
